{"source": "patent EP4050002A1", "about": "“ANTI-PROLIFERATIVE AGENTS” (First Health Pharmaceuticals B.V., priority 2021, dated 2022)", "key": {"A375 cell line": {"test_system": "A375 cell line", "assay": "Cytotoxicity, cell count method", "type": "cell-based", "conditions": "Homo sapiens, A-375, A375, 72 hours of incubation", "protocol": "(§1) The anti-tumor activity of the compounds of the present invention was evaluated as the effect on the proliferation and survival of tumor cells by counting the number of living cells in presence or absence of the compounds (\"cell count method\"), and as the effect on the viability and metabolic activity of the cells, by using particular substrates that are converted by cellular enzymes into coloured or luminescent products, proportionally with metabolic activity and state of the cell, such as the MTS tetrazolium compound (\"MTS method\") or luciferin (\"ATP-based method\") respectively.\n(§2) Cells were seeded at 3 to 5 x 10^4 cells/well density depending on cell lines and maintained at 37°C in 5% CO2. After 24 hours cells were treated with ascending concentrations of the investigational compounds and the reference (5-fluoro-Uracyl) in a range from 0 to 100 µM. Compounds were dissolved in DMSO which final concentration in each well was 0.5% v:v. After 72 h of incubation with compounds, the cells were detached with trypsin and re-suspended in 1 ml of complete medium; the cell number was evaluated using a Z2 Coulter Counter (\"cell count method\") (Attallah and Johnson, A simple highly sensitive methods for the determination of cell viability using an electronic particle analyzer, Coulter counter J. Immunol. Methods. 1981, 41, 155; Leonardi et al., Activated kinase screening identifies the IKBKE oncogene as a positive regulator of autophagy. Autophagy, 2019, 15, 312). Alternatively, after the 72 hours of incubation with compounds, the MTS solution (CellTiter 96® AQueous One Solution Cell Proliferation Assay) is added to each well and absorbance at 490 nm wavelength is read after 2 hours of incubation (\"MTS method\"). Results in Tables 8-13, 17, 18 were obtained with the cell count method. Results in Tables 14-15 were obtained with the MTS method. Results in Table 16 were obtained with ATP-based method."}, "A549 Red-FLuc": {"test_system": "A549 Red-FLuc", "assay": "Cytotoxicity, cell count method", "type": "cell-based", "conditions": "Homo sapiens, 72 hours of incubation", "protocol": "as §1, §2"}, "A549": {"test_system": "A549", "assay": "Cytotoxicity, cell count method", "type": "cell-based", "conditions": "Homo sapiens, A549, 72 hours of incubation", "protocol": "as §1, §2"}, "CALU1": {"test_system": "CALU1", "assay": "Cytotoxicity, cell count method", "type": "cell-based", "conditions": "Homo sapiens, Calu-1, CALU1, 72 hours of incubation", "protocol": "as §1, §2"}, "DU145 cell line": {"test_system": "DU145 cell line", "assay": "Cytotoxicity, cell count method", "type": "cell-based", "conditions": "Homo sapiens, DU-145, DU145, 72 hours of incubation", "protocol": "as §1, §2"}, "HUH7 cell line": {"test_system": "HUH7 cell line", "assay": "Cytotoxicity, cell count method", "type": "cell-based", "conditions": "Homo sapiens, Huh-7, HUH7, 72 hours of incubation", "protocol": "as §1, §2"}, "PANC-1 cell line": {"test_system": "PANC-1 cell line", "assay": "Cytotoxicity, cell count method", "type": "cell-based", "conditions": "Homo sapiens, PANC-1, 72 hours of incubation", "protocol": "as §1, §2"}, "SK-LU1": {"test_system": "SK-LU1", "assay": "Cytotoxicity, cell count method", "type": "cell-based", "conditions": "Homo sapiens, SK-LU-1, SK-LU1, 72 hours of incubation", "protocol": "as §1, §2"}, "U87": {"test_system": "U87", "assay": "Cytotoxicity, cell count method", "type": "cell-based", "conditions": "Homo sapiens, U-87 MG, U87, 72 hours of incubation", "protocol": "as §1, §2"}, "K562 cell line": {"test_system": "K562 cell line", "assay": "Cytotoxicity, MTS method", "type": "cell-based", "conditions": "Homo sapiens, K562, 72 hours of incubation", "protocol": "as §1\nCells were seeded at 3 to 5 x 10^4 cells/well density depending on cell lines and maintained at 37°C in 5% CO2. After 24 hours cells were treated with ascending concentrations of the investigational compounds and the reference (5-fluoro-Uracyl) in a range from 0 to 100 µM. […] After 72 h of incubation with compounds, the cells were detached with trypsin and re-suspended in 1 ml of complete medium; the cell number was evaluated using a Z2 Coulter Counter (\"cell count method\") (Attallah and Johnson, A simple highly sensitive methods for the determination of cell viability using an electronic particle analyzer, Coulter counter J. Immunol. Methods. 1981, 41, 155; Leonardi et al., Activated kinase screening identifies the IKBKE oncogene as a positive regulator of autophagy. Autophagy, 2019, 15, 312). […]"}, "[1]": {"assay": "Kinetic solubility (turbidimetry)", "type": "physicochemical", "conditions": "for Absorbance at 620nm: PBS pH 7.4, 37°C, 2 h", "protocol": "Kinetic solubility was assessed in phosphate buffered saline at pH 7.4 according to the turbidimetry method. Turbidity (precipitation) was measured by absorbance at 620 nm following incubation at 37°C for 2 h. Stock solution of compounds in DMSO were prepared to produce the desired final range of concentrations, then these were added to the buffer to obtain the final test compound concentrations (1 µM, 3 µM, 10 µM, 30 µM, 100 µM), with a final DMSO concentration 1%). Solubility was estimated from the concentration of tested compound that produced a significant increase in absorbance (≥ 0.003 OD at 620 nm) above vehicle control (1% DMSO in water). Miconazole, Reserpine and Propranolol were used as controls."}, "hERG channels": {"molecular_target": "T1, hERG channels (Homo sapiens, UniProt Q12809)", "T1 construct": "host or cells: HEK293", "T1 sequence (Q12809 whole entry)": "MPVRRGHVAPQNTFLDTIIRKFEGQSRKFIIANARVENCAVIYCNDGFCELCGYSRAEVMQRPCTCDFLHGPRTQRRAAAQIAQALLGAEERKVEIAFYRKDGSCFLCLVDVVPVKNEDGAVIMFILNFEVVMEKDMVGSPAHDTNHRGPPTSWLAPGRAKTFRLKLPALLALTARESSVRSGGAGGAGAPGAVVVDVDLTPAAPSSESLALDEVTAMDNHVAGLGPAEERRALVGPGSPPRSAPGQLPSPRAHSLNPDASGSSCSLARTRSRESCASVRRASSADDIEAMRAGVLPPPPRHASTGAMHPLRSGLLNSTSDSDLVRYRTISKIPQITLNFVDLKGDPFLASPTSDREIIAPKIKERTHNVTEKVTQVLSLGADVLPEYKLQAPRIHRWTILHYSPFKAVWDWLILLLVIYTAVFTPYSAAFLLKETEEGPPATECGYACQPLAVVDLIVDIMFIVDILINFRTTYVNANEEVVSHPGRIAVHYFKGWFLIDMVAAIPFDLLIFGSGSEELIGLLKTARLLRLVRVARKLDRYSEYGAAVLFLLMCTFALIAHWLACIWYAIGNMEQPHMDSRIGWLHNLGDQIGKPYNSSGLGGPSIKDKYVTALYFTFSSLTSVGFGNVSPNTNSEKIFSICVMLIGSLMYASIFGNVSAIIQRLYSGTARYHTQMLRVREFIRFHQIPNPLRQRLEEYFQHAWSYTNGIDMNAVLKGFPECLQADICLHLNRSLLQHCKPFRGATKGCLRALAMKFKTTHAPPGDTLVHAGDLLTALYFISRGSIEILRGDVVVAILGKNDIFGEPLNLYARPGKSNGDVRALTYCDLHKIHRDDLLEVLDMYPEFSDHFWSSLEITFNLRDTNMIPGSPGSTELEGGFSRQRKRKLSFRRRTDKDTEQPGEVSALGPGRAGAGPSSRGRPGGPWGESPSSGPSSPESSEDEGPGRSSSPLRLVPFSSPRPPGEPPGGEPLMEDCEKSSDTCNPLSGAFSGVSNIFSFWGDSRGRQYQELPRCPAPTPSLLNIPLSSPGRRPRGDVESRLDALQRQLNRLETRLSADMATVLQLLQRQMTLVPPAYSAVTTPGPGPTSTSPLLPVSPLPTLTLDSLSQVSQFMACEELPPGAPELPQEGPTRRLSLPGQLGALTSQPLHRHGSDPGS", "assay": "hERG inhibition (whole cell patch clamp, HEK293)", "type": "cell-based", "conditions": "300nM to 30µM, HEK293 cells", "protocol": "HEK293 cells (Eurofins Discover X, Catalogue number CYL3039) stably expressing hERG channels (human ether-a-go-go-related gene potassium channels were plated onto 12 mm coverslips, 12 to 18 h before performing the assay. Cells with coverslips were placed in recording chamber of molecular devices profiled with extracellular solution. Glass capillary with a tip resistance from […] was back filled with intracellular solution. Giga seal was attained using a sequence of positive and negative pressure.\nWhole cell configuration was attained using a gentle suction. Cell capacitance and series resistance compensation was done using software controls provided in multi clamp 700B commander. The cells are maintained at a holding potential of -80mV; hERG currents are activated by cell depolarization to +20mV for 2 seconds followed by a 3 second repolarization to -60mV (frequency: 0.05Hz).\nElectrical signals were filtered at 2 KHz and digitized at 5 KHz. Series resistance compensation was typically 60% to 70% such that voltage errors were less than 5 mV. […] Data were acquired using Clampex acquisition software. […]\nAmplitude of the tail current upon repolarization to -60mV (pA) and inhibition of the hERG tail current with respect to untreated cells (%) are measured. […]"}}, "data": [{"smiles": "CCCCc1cn(-c2ccc(-c3nnc(-c4ccccc4C(F)(F)F)o3)cc2)nn1", "note": "[Compound 5]", "values": [{"measurement": "IC50", "setting": "A375 cell line", "result": 0.94, "unit": "µM"}, {"measurement": "IC50", "setting": "A549 Red-FLuc", "result": 6.04, "unit": "µM"}, {"measurement": "IC50", "setting": "A549", "result": 0.35, "unit": "µM"}, {"measurement": "IC50", "setting": "CALU1", "result": 0.37, "unit": "µM"}, {"measurement": "IC50", "setting": "DU145 cell line", "result": 3.7, "unit": "µM"}, {"measurement": "IC50", "setting": "HUH7 cell line", "result": 3.28, "unit": "µM"}, {"measurement": "IC50", "setting": "PANC-1 cell line", "result": 0.72, "unit": "µM"}, {"measurement": "IC50", "setting": "SK-LU1", "result": 0.42, "unit": "µM"}, {"measurement": "IC50", "setting": "U87", "result": 3.9, "unit": "µM"}, {"measurement": "IC50", "setting": "K562 cell line", "result": 20.3, "unit": "µM"}, {"measurement": "solubility at 2 h", "setting": "[1]; 37 °C, aqueous buffer, kinetic from dmso stock, kinetic solubility, PBS pH 7.4, read-out: solubility", "result": "> 100", "unit": "µM"}, {"measurement": "Absorbance at 620nm", "setting": "[1]; conc. 1 µM", "result": 0.037}, {"measurement": "Absorbance at 620nm", "setting": "[1]; conc. 3 µM", "result": 0.037}, {"measurement": "Absorbance at 620nm", "setting": "[1]; conc. 10 µM", "result": 0.037}, {"measurement": "Absorbance at 620nm", "setting": "[1]; conc. 30 µM", "result": 0.037}, {"measurement": "Absorbance at 620nm", "setting": "[1]; conc. 100 µM", "result": 0.038}, {"measurement": "effect on the conductance of the hERG channel", "setting": "hERG channels", "result": "No effect on the conductance of the hERG channel"}]}]}
